# Values of other authors as cited in patent US8519110B2, “mRNA cap analogs” (Board of Supervisors of Louisiana State University And …, priority 2008, dated 2013).
# Key:
# eIF4E = eIF4E (Mus musculus, UniProt P63073); settings: literature comparison; cited from earlier work
# recombinant human Dcp2 = recombinant human Dcp2 (Homo sapiens, UniProt Q8IU60); settings: mRNAs capped with the analog; cited from earlier work
# cultured mammalian cells [1] = settings: compared with ARCA-capped (m2^7,3′-OGpppG) mRNA; cited from earlier work
# cultured mammalian cells [2] = settings: compared with ARCA-capped mRNA; cited from earlier work
# Sequence of eIF4E (P63073 28-217 limits assumed): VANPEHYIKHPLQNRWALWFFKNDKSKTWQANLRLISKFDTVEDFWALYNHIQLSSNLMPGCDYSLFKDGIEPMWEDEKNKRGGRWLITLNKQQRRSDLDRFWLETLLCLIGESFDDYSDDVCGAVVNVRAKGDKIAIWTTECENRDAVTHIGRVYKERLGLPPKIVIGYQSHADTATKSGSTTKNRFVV
smiles,measurement,setting,value
"CO[C@H]1[C@@H](O)[C@H](n2c[n+](C)c3c(=O)[nH]c(N)nc32)O[C@@H]1COP(=O)([O-])OP(=O)(O)CP(=O)(O)OC[C@H]1O[C@@H](n2cnc3c(=O)[nH]c(N)nc32)[C@H](O)[C@@H]1O [m2^7,3′-OGppCH2pG]",Binding affinity for eIF4E,eIF4E,"lower binding affinity for eIF4E than that of m2^7,3′-OGpppG"
same,Hydrolysis of capped mRNA by recombinant human Dcp2 in vitro,recombinant human Dcp2,resistant to hydrolysis
same,Stability of capped mRNA in cultured cells,cultured mammalian cells [1],"more stable than those capped with m2^7,3′-OGpppG"
same,Overall translational efficiency of capped mRNA in cells,cultured mammalian cells [2],lower overall translational efficiency
